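Following 48 hours of exposure in 96-well plates, responses at five concentrations were used to interpolate endpoints linearly. GI50 = concentration required for 50% inhibition of growth. Definition used: TGI = concentration required for complete inhibition of growth.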
Columns and labels:
Experiment in all cases: NCI-60 cell line screen, 48 h
A549 NSCLC = tested on: A549 NSCLC
DU-145 prostate = tested on: DU-145 prostate
HCT-116 colon = tested on: HCT-116 colon
HOP-62 NSCLC = tested on: HOP-62 NSCLC
OVCAR-3 ovarian = tested on: OVCAR-3 ovarian
SK-MEL-5 melanoma = tested on: SK-MEL-5 melanoma
SN12C renal = tested on: SN12C renal
SR leukemia = tested on: SR leukemia
KM20L2 colon = tested on: KM20L2 colon
M19-MEL melanoma = tested on: M19-MEL melanoma

Structure (SMILES) | GI50 (A549 NSCLC) [µM] | TGI (A549 NSCLC) [µM] | GI50 (DU-145 prostate) [µM] | TGI (DU-145 prostate) [µM] | GI50 (HCT-116 colon) [µM] | TGI (HCT-116 colon) [µM] | GI50 (HOP-62 NSCLC) [µM] | TGI (HOP-62 NSCLC) [µM] | GI50 (OVCAR-3 ovarian) [µM] | TGI (OVCAR-3 ovarian) [µM] | GI50 (SK-MEL-5 melanoma) [µM] | TGI (SK-MEL-5 melanoma) [µM] | GI50 (SN12C renal) [µM] | TGI (SN12C renal) [µM] | GI50 (SR leukemia) [µM] | TGI (SR leukemia) [µM] | TGI (KM20L2 colon) [µM] | TGI (M19-MEL melanoma) [µM]
CCn1c(-c2cc3c([nH]c4ccccc43)c(-c3cccc(O)c3)n2)n[nH]c1=S | 4 | 18.8 | 4.87 | 16.7 | 3.88 | 15 | 4.71 | 16 | 3.13 | 11.4 | 1.45 | 3.06 | 4.02 | 22.1 | 1.67 | 6.97 | – | –
CCCCCCCCOC(=O)c1c(C)[nH]c(/C=C2\N=C(c3ccc[nH]3)C=C2OC)c1C | 0.118 | 13.3 | 0.0427 | 9.87 | < 0.0177 | 1.25 | 0.23 | 11.7 | 0.0276 | 0.422 | 0.0169 | 0.0819 | 0.0601 | 3.55 | < 0.0169 | 1.05 | – | –
O=C(O)c1cc(=O)c2c([nH]c3ccccc32)s1 | – | > 100 | – | – | – | – | – | > 100 | – | > 100 | – | > 100 | – | > 100 | – | – | > 100 | > 100
COc1cccc(CN(C)c2ccc(CO)c(Cl)c2)c1 | 4.09 | 40.1 | 37.1 | > 100 | 0.243 | 14.1 | 5.33 | > 87.7 | 2.31 | 10.6 | 7.5 | 21.4 | 24.7 | > 100 | 41.8 | > 100 | – | –
CC(C)c1nc(N(C)S(C)(=O)=O)nc(-c2ccc(F)cc2)c1/C=C/[C@@H](O)C[C@@H](O)CC(=O)O | > 100 | > 100 | > 100 | > 100 | 59.5 | > 100 | > 100 | > 100 | > 100 | > 100 | 52.7 | > 100 | 56.2 | > 100 | 32.7 | > 100 | – | –
Cc1ncc(C(=O)Nc2ccc(CN3CCN(C)CC3)c(C(F)(F)F)c2)cc1C#Cc1ccc(N)nc1 | 0.531 | 4.41 | 0.186 | 4.12 | 0.213 | 1.64 | 0.426 | 2.6 | 0.556 | 4.16 | 0.532 | 1 | 0.135 | 2.25 | 0.189 | 4.4 | – | –
C#CCNC(=S)N/N=C(\C)c1ccccn1 | 1.18 | > 100 | 0.404 | > 59.3 | 0.0329 | > 38 | 1.25 | 16 | 0.0353 | 19.4 | 0.617 | 2.7 | 0.388 | > 100 | 0.328 | 3.4 | – | –
